The target in series [1] is T1, human CB2 receptor (Homo sapiens, UniProt P34972).
T1 construct: The coding region of human CB2 receptor (CB2R) cDNA (Munro etc, Nature, 1993, 365, 61-65) was inserted into the mammalian expression vector; expressed in transfected cells
Description: Human CB2 receptor binding inhibition ([3H]CP55940, membranes of CB2R-expressing CHO cells).
Description: The crude membrane fractions were prepared from the CB2R-expressing CHO cells. Receptor binding assay was performed by incubating the membranes with each test compound and [^3H]CP55940 (at a final concentration of 0.5 nM: NEN Life Science Products) in the assay buffer (50 mM Tris-HCl, 1 mM EDTA, 3 mM MgCl2, pH 7.4) containing 0.5% bovine serum albumin (BSA) for 2 h at 25° C. The incubation mixture was filtered through 1% polyethylenimine-treated GF/C glass filter and washed with 50 mM Tris-HCl (pH 7.4) containing 0.1% BSA. The radioactivity was then counted with a liquid scintillation counter.
(§1) For the receptor binding assay of human CB1 receptor (CB1R), the stable CB1R-expressing CHO cells were prepared as described above, and the binding assay was performed using their membrane fractions.

Series [2] addresses T2, human CB1 receptor (Homo sapiens, UniProt P21554).
T2 construct: expressed in transfected cells
Description: Human CB1 receptor binding assay ([3H]CP55940, membranes of CB1R-expressing CHO cells). To be noted: [3H]CP55940 0.5 nM.
Description: Receptor binding assay was performed by incubating the membranes with each test compound and [^3H]CP55940 (at a final concentration of 0.5 nM: NEN Life Science Products) in the assay buffer (50 mM Tris-HCl, 1 mM EDTA, 3 mM MgCl2, pH 7.4) containing 0.5% bovine serum albumin (BSA) for 2 h at 25° C. The incubation mixture was filtered through 1% polyethylenimine-treated GF/C glass filter and washed with 50 mM Tris-HCl (pH 7.4) containing 0.1% BSA. The radioactivity was then counted with a liquid scintillation counter.
as §1

T2 sequence (P21554 whole entry): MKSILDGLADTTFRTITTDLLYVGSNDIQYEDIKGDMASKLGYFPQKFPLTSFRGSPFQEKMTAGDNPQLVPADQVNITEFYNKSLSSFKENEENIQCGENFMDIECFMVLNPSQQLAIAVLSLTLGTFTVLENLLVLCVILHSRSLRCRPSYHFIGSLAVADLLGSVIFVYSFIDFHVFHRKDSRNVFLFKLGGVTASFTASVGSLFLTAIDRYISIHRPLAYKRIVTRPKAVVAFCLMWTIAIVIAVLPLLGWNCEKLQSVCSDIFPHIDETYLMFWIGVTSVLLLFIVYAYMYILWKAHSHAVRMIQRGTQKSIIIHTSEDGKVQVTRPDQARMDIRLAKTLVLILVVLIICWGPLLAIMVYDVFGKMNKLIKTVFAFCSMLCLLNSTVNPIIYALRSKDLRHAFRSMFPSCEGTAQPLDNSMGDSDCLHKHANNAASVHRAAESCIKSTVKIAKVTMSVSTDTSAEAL
T1 sequence (P34972 whole entry): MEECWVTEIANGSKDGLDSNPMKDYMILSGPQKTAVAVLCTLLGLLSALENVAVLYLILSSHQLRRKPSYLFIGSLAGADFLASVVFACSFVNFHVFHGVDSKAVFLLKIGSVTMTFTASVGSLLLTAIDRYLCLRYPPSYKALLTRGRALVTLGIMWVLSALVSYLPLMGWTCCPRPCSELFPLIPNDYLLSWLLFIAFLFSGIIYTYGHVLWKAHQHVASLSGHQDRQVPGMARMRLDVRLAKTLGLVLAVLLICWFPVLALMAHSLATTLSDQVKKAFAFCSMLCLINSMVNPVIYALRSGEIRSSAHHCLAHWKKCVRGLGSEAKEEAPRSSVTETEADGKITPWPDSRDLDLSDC

Turning to `Cc1ccc(Oc2nc3ccccc3o2)c(=S)n1C`, the melting point is 245 to 247 °C.

Regarding `CCn1c(C)c(C)cc(C(=O)NCc2ccccc2)c1=O`, the melting point was determined as 117 °C.

Regarding `CCCCn1c(C)c(C)cc(NC(=O)c2ccc(F)cc2)c1=O`, the melting point was in the range of 129 to 130 °C.

Regarding `CCCCn1c2c(cc(C(=O)NCCc3ccc(N)cc3)c1=O)CCCC2` [Example 4-003], the Ki in series [1] is 44 nM; in series [2] it was 680 nM.

In turn, `CCCCn1c(C)c(C)cc(NC(=O)c2ccccc2Cl)c1=O` [Example 5-005] registered a Ki in series [2] of 391 nM.

The compound `CCCCn1c(C)c(C)cc(NC(=O)c2ccccc2C)c1=O` [Example 5-006] yielded a Ki in series [2] of 390 nM.

In general, melting point refers to the temperature, or range, at which the solid turns liquid. The Ki is the dissociation constant of the complex between target and ligand, obtained from inhibition or displacement. A high value points to weaker binding.

Source of the values: patent US8088924B2, “Pyridone derivatives having a binding activity to the cannabinoid type 2 receptor” (Shionogi & Co., Ltd., priority 2000, dated 2012).
